From patent publication US20220213138A1, “CYCLIC COMPOUNDS AND METHODS OF MAKING AND USING” (UNIVERSITY OF HONG KONG, priority 2019, published 2022)
Like-named read-outs stand apart in the source and are kept apart here. Positions of bridges follow the written chain, without caps; N, C: chain ends. No end group written: not given here.

How the values were obtained:
[1] = crosslinker bond
Caco2 cells = experiment: Fluorescence confocal imaging analysis of Caco2 cells; type: cell-based; settings: 1 μL 10 mM peptide in 1 mL DMEM with 10% FBS, 2 hours at 37° C.
Protocol: Caco2 cell line was provided by Prof. Jiang Xia (CUHK). A431 and HT116 cell lines were from Prof. Chiming Che (HKU). Caco2, A431 cells were cultured in DMEM supplemented with 10% FBS. HT116 cells were cultured in RPMI 1640 medium supplemented with 10% FBS. All cells were cultured in a humidified incubator at 37° C. with 5% CO2 supplemented. Cell culture medium and FBS were purchased from Gibco. Hoechst 33342 and DiI were purchased from Beyotime Biotechnology. Flow cytometry tubes were purchased from BD pharmacology.
Caco2 cells were cultured with the confluence of 60% in the 35 mm glass-bottom dish overnight. 1 mL fresh DMEM with 10% FBS was added to the dish. 1 μL 10 mM cyclic peptide (Ac-CPIEDRPMK-CONH2)-Fluorescein (cCK9′-F) (SEQ ID NO:27) in DMSO was added into the medium for 2 hours at 37° C. After two hours' incubation, the supernatant was discarded and the cells were washed with PBS for three times. The cells were replenished with PBS. Hoechst 33342 (final concentration: 2.5 μg/mL) and DiI (final concentration: 5 μM) were added into PBS for 10 min at room temperature. The supernatant was discarded. The cells were washed with PBS for three times and replenished with 3% polyaldehyde for imaging. All images were captured and processed via Leica Application Suit X at ×63 oil objective (Leica).

[2] = tested on: poorly differentiated colon carcinoma cells; settings: Kelly, et al., Neoplasia 2003; cited from earlier work
[3] = 24-membered ring, OPA, PBS pH 7.4/DMSO
[4] = crosslinker bond, 24-membered ring, OPA, then DMAC, PBS pH 7.4/DMSO, 2 steps
[5] = crosslinker bond, 27-membered ring, OPA, then DMAC, PBS pH 7.4/DMSO, 2 steps
[6] = crosslinker bond, 21-membered ring, OPA, then DMAC, PBS pH 7.4/DMSO, 2 steps
[7] = 21-membered ring, OPA, PBS pH 7.4/DMSO
[8] = 27-membered ring, OPA, PBS pH 7.4/DMSO

Q: Which ring closure, conversion ([1]; 36-membered ring, OPA, PBS pH 7.4/DMSO) does the source give for cyclo-(CSQGTFTSDYSKYLDSRRAQ) here?
A: 71.4%

Q: And the ring closure, yield after HPLC (amide bond, 60-membered ring, NaNO2, MPAA, TCEP (NCL), 6 M Gn.HCl/0.2 M phosphate buffer, 0.2 mM)?
A: 71.7%

Q: With Ac-KAAACF-CONH2 as the substance, how does the ring closure, conversion ([1]; 21-membered ring, OPA) read?
A: 98%

Q: With Ac-KAAAACH-CONH2 as the substance, how does the ring closure, conversion ([1]; 24-membered ring, OPA, PBS pH 7.4/DMSO, 0.53 mM) read?
A: 92%

Q: Which ring closure, conversion [1, 3] does the source give for Ac-ACFALPKG-CONH2 here?
A: 92.5%

Q: With cyclo-(Ac-AKVTMTCSAS-CONH2)-DMAC as the substance, how does the ring closure, yield after HPLC [4] read?
A: 32%

Q: For bicyclo-(Dap-A-Hyp-C-t-A-E)-DMAC, which ring closure, yield after HPLC (crosslinker bond, 15-membered ring, 2 steps) is on record?
A: 65%

Q: With “Cyclo-(Ac-CPIEDRPMK-CONH2)-Fluorescein (Ac-CPIEDRPMK-NH2; linker (positions not given here) via OPA; also: fluorescein conjugate, site not given here) [cCK9′-F]” as the substance, how does the “imaging overlap with cell membrane dye (DiI)” value (Caco2 cells) read?
A: overlapped very well with cell membrane dye (DiI)

Q: With cyclo-(Ac-ACFALPKG-CONH2)-DMAC as the substance, how does the ring closure, yield after HPLC [4] read?
A: 48%

Q: With “Phallodin analog (cyclo-(Dap-Ala-Hyp-Cys-(D)thr-Ala-Glu))” as the substance, how does the ring closure, conversion ([1]; 15-membered ring) read?
A: 86.4%

Q: For bicyclo-(CSSLDEPGRGGFSSESKV)-DMAC, which ring closure, yield after HPLC (crosslinker bond, 15-membered ring, OPA, then DMAC, PBS pH 7.4/DMSO, 2 steps) is on record?
A: 43%

Q: What does the source list for cyclo-(CSSLDEPGRGGFSSESKV)?
A: ring closure, conversion ([1]; 15-membered ring, OPA, PBS pH 7.4/DMSO): 86.9%; ring closure, yield after HPLC (amide bond, 54-membered ring, NaNO2, MPAA, TCEP (NCL), 6 M Gn.HCl/0.2 M phosphate buffer, 0.14 mM): 68.8%

Q: Which ring closure, conversion ([1]; 21-membered ring, OPA) does the source give for bicyclo-(CNSTKNLTFAMRSSGDYGEV) here?
A: 90%

Q: For cyclo-(Ac-KAAAAACH-CONH2)-DMAC, which ring closure, yield after HPLC [5] is on record?
A: 52.2%

Q: For NH2-AAAAACF-CONH2, which ring closure, conversion ([1]; 20-membered ring, OPA) is on record?
A: 98%

Q: For bicyclo-(CSQGTFTSDYSKYLDSRRAQ), which ring closure, conversion ([1]; 36-membered ring, OPA) is on record?
A: 94%

Q: Which ring closure, conversion [1, 3] does the source give for Ac-AKVTMTCSAS-CONH2 here?
A: 99%

Q: For cyclo-(Ac-KGEAFQC-CONH2)-DMAC, which ring closure, yield after HPLC [5] is on record?
A: 36.6%

Q: Which ring closure, yield after HPLC [6] does the source give for bicyclo-(CNSTKNLTFAMRSSGDYGEV)-DMAC here?
A: 69%

Q: Which results are given for cyclo-(CNSTKNLTFAMRSSGDYGEV)?
A: ring closure, conversion [1, 7]: 89.2%; ring closure, yield after HPLC (amide bond, 60-membered ring, NaNO2, MPAA, TCEP (NCL), 6 M Gn.HCl/0.2 M phosphate buffer, 0.37 mM): 31%

Q: Which cell targeting [2] does the source give for “cyclo-(CPIEDRPMC) (disulfide 1-9 (inferred)) [CK-9]” here?
A: specifically target poorly differentiated colon carcinoma cells

Q: With Ac-GAQCAFLK-CONH2 as the substance, how does the ring closure, conversion [1, 7] read?
A: 83.3%

Q: For Ac-KAAAAACF-CONH2, which ring closure, conversion ([1]; 27-membered ring, OPA) is on record?
A: 98%

Q: For cyclo-(Ac-KAAACH-CONH2)-DMAC, which ring closure, yield after HPLC [6] is on record?
A: 47.3%

Q: For cyclo-(Ac-KAAAACH-CONH2)-DMAC, which ring closure, yield after HPLC (crosslinker bond, 24-membered ring, OPA, then DMAC, PBS pH 7.4/DMSO, 0.53 mM, 2 steps) is on record?
A: 34%

Q: For cyclo-(Ac-ENPECILDKHVQRVM-CONH2)-DMAC, which ring closure, yield after HPLC [6] is on record?
A: 35%

Q: For Ac-KAAACH-CONH2, which ring closure, conversion [1, 7] is on record?
A: 98%

Q: Which ring closure, conversion ([1]; 33-membered ring, OPA) does the source give for Ac-CHHALTHAK-CONH2 here?
A: 98%

Q: With cyclo-(Ac-GAQCAFLK-CONH2)-DMAC as the substance, how does the ring closure, yield after HPLC [6] read?
A: 38%

Q: For Ac-KAAAAAACF-CONH2, which ring closure, conversion ([1]; 30-membered ring, OPA) is on record?
A: 98%

Q: Which ring closure, conversion [1, 8] does the source give for Ac-KGEAFQC-CONH2 here?
A: 90.9%

Q: With Ac-CAHNLTHAK-CONH2 as the substance, how does the ring closure, conversion ([1]; 33-membered ring, OPA) read?
A: 98%

Q: Which ring closure, conversion [1, 3] does the source give for Ac-CDWLPK-CONH2 here?
A: 89.1%

Q: Which ring closure, conversion [1, 8] does the source give for Ac-KAAAAACH-CONH2 here?
A: 98%

Q: For NH2-AAAACF-CONH2, which ring closure, conversion ([1]; 17-membered ring, OPA) is on record?
A: 96%

Q: For cyclo-(Ac—NYRWRCKN-CONH2)-DMAC, which ring closure, yield after HPLC (crosslinker bond, 12-membered ring, OPA, then DMAC, PBS pH 7.4/DMSO, 2 steps) is on record?
A: 32%

Q: With Ac-NYRWRCKN-CONH2 as the substance, how does the ring closure, conversion ([1]; 12-membered ring, OPA, PBS pH 7.4/DMSO) read?
A: 98%

Q: With cyclo-(Ac-CDWLPK-CONH2)-DMAC as the substance, how does the ring closure, yield after HPLC [4] read?
A: 31.9%

Q: With Ac-KAAAACF-CONH2 as the substance, how does the ring closure, conversion ([1]; 24-membered ring, OPA) read?
A: 93%

Q: With bicyclo-(CSSLDEPGRGGFSSESKV) as the substance, how does the ring closure, conversion ([1]; 15-membered ring, OPA) read?
A: 98%

Q: Which ring closure, yield after HPLC (crosslinker bond, 36-membered ring, OPA, then DMAC, PBS pH 7.4/DMSO, 2 steps) does the source give for bicyclo-(CSQGTFTSDYSKYLDSRRAQ)-DMAC here?
A: 65%

Q: With NH2-AAACF-CONH2 as the substance, how does the ring closure, conversion ([1]; 14-membered ring, OPA) read?
A: 98%

Q: Which ring closure, conversion ([1]; 21-membered ring, OPA) does the source give for Ac-ENPECILDKHVQRVM-CONH2 here?
A: 98%

Q: And the ring closure, conversion [1, 7]?
A: 93.6%
